# Results reported in patent publication US7074785B2, “Δ1-pyrrolines used as pesticides” (Bayer Cropscience AG, priority 2001, dated 2006).
# Where two headings read alike, the source gives them in different places.
# Experiments:
# [1] = logP determination by HPLC (reversed-phase C18, EEC Directive 79/831 Annex V.A8); format: physicochemical
# Experimental: The logP values stated in the above tables and Preparation Examples are determined in accordance with EEC Directive 79/831 Annex V.A8 by HPLC (High Performance Liquid Chromatography) using a reversed-phase column (C 18). Temperature: 43° C.
# In the acidic range at pH 2.3 the determination takes place using 0.1% aqueous phosphoric acid and acetonitrile as the mobile phases; linear gradient from 10% acetonitrile to 90% acetonitrile. Corresponding results are marked in the tables by “a)”
# In the neutral range at pH 7.5 the determination takes place using 0.01 molar aqueous phosphate buffer solution and acetonitrile as the mobile phases; linear gradient from 10% acetonitrile to 90% acetonitrile. Corresponding results are marked in the tables by “b)”
# Calibration is carried out using unbranched alkan-2-ones (having 3 to 16 carbon atoms), with known logP values (the logP values determined on the basis of the retention times using linear interpolation between two successive alkanones).
# [2] = test system: army worm (Spodoptera frugiperda) caterpillars; test: Spodoptera frugiperda test; format: in vivo; conditions: in Brassica oleracea, 168 h, read-out: Kill rate in % after 7 d, 100 ppm, cabbage leaves dipped, Spodoptera frugiperda
# [3] = test system: greenhouse red spider mite (Tetranychus urticae); test: Tetranychus test (OP resistant/dip treatment); format: in vivo; conditions: 168 h, read-out: Kill rate in % after 7 d, 100 ppm, bean plants dipped, Tetranychus urticae OP-resistant
# Experimental: Tetranychus Test (OP Resistant/Dip Treatment)
# (§1) Solvent: 7 parts by weight of dimethylformamide
# After the desired period of time, the effect in % is determined.
# [4] = test system: larvae of the mustard beetle (Phaedon cochleariae); test: Phaedon larvae test; conditions: in Brassica oleracea, 168 h, read-out: Kill rate in % after 7 d, 100 ppm, cabbage leaves dipped, Phaedon cochleariae larvae
# [5] = test system: Heliothis virescens caterpillars; test: Heliothis virescens test; format: in vivo; conditions: 100 ppm, soya bean shoots dipped
# Description: as §1
# [6] = test system: caterpillars of the cabbage moth (Plutella xylostella, sensitive strain); test: Plutella test, sensitive strain; format: in vivo; conditions: 100 ppm, cabbage leaves dipped
# Description: Plutella Test, Sensitive Strain
# as §1
# [7] = test system: caterpillars of the cabbage moth (Plutella xylostella), resistant strain; test: Plutella test, resistant strain; format: in vivo; conditions: 100 ppm, cabbage leaves dipped
# Description: Plutella Test, Resistant Strain
# as §1
# [8] = test system: army worm (Spodoptera exigua) caterpillars; test: Spodoptera exigua test; format: in vivo; conditions: 100 ppm, cabbage leaves dipped
# Description: as §1
# [9] = test system: Boophilus microplus resistant/SP-resistant Parkhurst strain, adult satiated females; test: Test with Boophilus microplus resistant/SP-resistant Parkhurst strain; format: in vivo; conditions: injected into abdomen, fertile egg deposition after 7 days
# Experimental: Test with Boophilus microplus Resistant/SP-Resistant Parkhurst Strain
# Test animals: Adult satiated females
# (§2) Solvent: Dimethyl sulphoxide
# 20 mg of active compound are dissolved in 1 ml of dimethyl sulphoxide. Lower concentrations are prepared by dilution in the same solvent.
# The test is carried out in 5 replications. 1 μl of the solutions is injected into the abdomen, and the animals are transferred to dishes and kept in a climate-controlled room. After 7 days, activity is checked by examination for deposition of fertile eggs. Eggs whose fertility is not externally visible are stored in glass tubes in a controlled-environment cabinet until the larvae have hatched. An activity of 100% denotes that none of the ticks has laid fertile eggs.
# [10] = test system: Adult Musca domestica, Reichswald strain (OP, SP, carbamate-resistant); test: Test with flies (Musca domestica); format: in vivo; conditions: filter paper disc
# Experimental: Test with Flies (Musca domestica)
# Test animals: Adult Musca domestica, Reichswald strain (OP, SP, carbamate-resistant)
# as §2
# 20 mg of active compound are dissolved in 1 ml dimethyl sulphoxide. Lower concentrations are prepared by dilution with distilled water.
# 2 ml of this active compound preparation are pipetted on filter paper discs (Ø9.5 cm) in Petri dishes of corresponding dimensions. After the filter discs have been dried, 25 test animals are transferred to the Petri dishes, which are then covered.
# After 1, 3, 5, 24 and 48 hours the activity of the active compound preparation is measured. 100% means that all flies have been killed, 0% means that no fly has been killed.
# [11] = HPLC, acidic range pH 2.3, 0.1% aqueous phosphoric acid/acetonitrile; marked a), read-out: log P (pH 2.3)
# [12] = HPLC, neutral range pH 7.5, 0.01 molar phosphate buffer/acetonitrile; marked b), read-out: log P (pH 7.5)
"chromatographic logP ([1]; reversed-phase C18 HPLC column; HPLC, acidic range pH 2.3, 0.1% aqueous phosphoric acid/acetonitrile; marked a), read-out: log P (pH 2.3))","chromatographic logP ([1]; reversed-phase C18 HPLC column; HPLC, neutral range pH 7.5, 0.01 molar phosphate buffer/acetonitrile; marked b), read-out: log P (pH 7.5))",Compound,"chromatographic logP [1, 11]","chromatographic logP [1, 12]",pest or weed control at 100 ppm [2],pest or weed control at 100 ppm [3],pest or weed control at 100 ppm [4],Kill rate in % after 7 d [5],Kill rate in % after 7 d [6],Kill rate in % after 7 d [7],Kill rate in % after 7 d [8],Activity/kill in % ([9]; 20 μg/animal),Activity/kill in % ([9]; 100 μg/animal),Activity/kill in % ([9]; 4 μg/animal),Activity/kill in % ([10]; 20 ppm),Activity/kill in % ([10]; 100 ppm)
,,"COC(=O)Nc1ccc(-c2ccc(C3CCC(c4c(F)cccc4F)=N3)cc2)cc1 (stereo not drawn) [Compound 1, methyl 4′-[5-(2,6-difluorophenyl)-3,4-dihydro-2H-pyrrol-2-yl]-1,1′-biphenyl-4-ylcarbamate]",2.31,3.52,≥ 95%,≥ 85%,≥ 85%,,,,,,,,,
,,"CCCOC(=O)Nc1ccc(-c2ccc(C3CCC(c4c(F)cccc4F)=N3)cc2)cc1 (stereo not drawn) [Compound 2, n-propyl 4′-[5-(2,6-difluorophenyl)-3,4-dihydro-2H-pyrrol-2-yl]-1,1′-biphenyl-4-ylcarbamate]",3.02,4.24,≥ 95%,≥ 85%,≥ 85%,,,,,,,,,
,,CCOC(=O)Nc1ccc(-c2ccc(C3CCC(c4c(F)cccc4F)=N3)cc2)cc1 (stereo not drawn) [Compound 6],2.62,3.85,≥ 95%,≥ 85%,≥ 85%,100%,100%,100%,100%,,,,,
,,CC(C)OC(=O)Nc1ccc(-c2ccc(C3CCC(c4c(F)cccc4F)=N3)cc2)cc1 (stereo not drawn) [Compound 7],3,4.19,≥ 95%,≥ 85%,≥ 85%,100%,100%,100%,100%,0%,40%,,,
,,CC(C)COC(=O)Nc1ccc(-c2ccc(C3CCC(c4c(F)cccc4F)=N3)cc2)cc1 (stereo not drawn) [Compound 8],3.32,4.54,,,,100%,100%,100%,100%,40%,80%,0%,,
1.71,2.78,CNC(=O)Nc1ccc(-c2ccc(C3CCC(c4c(F)cccc4F)=N3)cc2)cc1 (stereo not drawn) [Compound 13],,,,,,,,,,,,,0%,30%
,,O=C(Nc1ccc(-c2ccc(C3CCC(c4c(F)cccc4F)=N3)cc2)cc1)OCc1cccs1 (stereo not drawn) [Compound 27],3.28,4.36,≥ 95%,≥ 85%,≥ 85%,,,,,,,,,
